Measurements taken from PubChem BioAssay AID1963958 (Molecular Pharmacology Branch, DTP, NCI, 2024).
pIC50: −log10 of the molar value.

Tested on: MDA-MB-231 multicell spheroids, viability
Assay: Anticancer human tumor MDA-MB-231 cell line growth inhibition [PI3K];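 note: spheroids exposed to agents for seven days before reading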;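 for viability, T/C: percent of vehicle control luminescence with DMSO treated spheroids as 100%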
Settings: for pIC50: curve of first compound; for viability, T/C: stronger effect = lower value
How it was run: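 Spheroid viability read-out. Co-cultures contained the tumor line plus HUVEC and human MSCs. Each agent was paired with a PI3K inhibitor (inavolisib, alpelisib, duvelisib, copanlisib) across half-log dilutions starting at clinical Cmax, or at 10 microM when Cmax was unknown.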

[1] = second compound 0.00316 µM, first compound 0.000316 µM
[2] = second compound 0.00316 µM, first compound 0.001 µM
[3] = second compound 0.00316 µM, first compound 0.00316 µM
[4] = second compound 0.00316 µM, first compound 0.01 µM
[5] = second compound 0.00316 µM, first compound 0.0316 µM
[6] = second compound 0.00316 µM, first compound 0.1 µM
[7] = second compound 0.01 µM, first compound 0.000316 µM
[8] = second compound 0.01 µM, first compound 0.001 µM
[9] = second compound 0.01 µM, first compound 0.00316 µM
[10] = second compound 0.01 µM, first compound 0.01 µM
[11] = second compound 0.01 µM, first compound 0.0316 µM
[12] = second compound 0.01 µM, first compound 0.1 µM
[13] = second compound 0.0316 µM, first compound 0.000316 µM
[14] = second compound 0.0316 µM, first compound 0.001 µM
[15] = second compound 0.0316 µM, first compound 0.00316 µM
[16] = second compound 0.0316 µM, first compound 0.01 µM
[17] = second compound 0.0316 µM, first compound 0.0316 µM
[18] = second compound 0.0316 µM, first compound 0.1 µM
[19] = second compound 0.1 µM, first compound 0.000316 µM
[20] = second compound 0.1 µM, first compound 0.001 µM
[21] = second compound 0.1 µM, first compound 0.00316 µM
[22] = second compound 0.1 µM, first compound 0.01 µM
[23] = second compound 0.1 µM, first compound 0.0316 µM
[24] = second compound 0.1 µM, first compound 0.1 µM
[25] = second compound 0.316 µM, first compound 0.000316 µM
[26] = second compound 0.316 µM, first compound 0.001 µM
[27] = second compound 0.316 µM, first compound 0.00316 µM
[28] = second compound 0.316 µM, first compound 0.01 µM
[29] = second compound 0.316 µM, first compound 0.0316 µM
[30] = second compound 0.316 µM, first compound 0.1 µM
[31] = second compound 1 µM, first compound 0.000316 µM
[32] = second compound 1 µM, first compound 0.001 µM
[33] = second compound 1 µM, first compound 0.00316 µM
[34] = second compound 1 µM, first compound 0.01 µM
[35] = second compound 1 µM, first compound 0.0316 µM
[36] = second compound 1 µM, first compound 0.1 µM

CC(=O)c1c(C)c2cnc(Nc3ccc(N4CCNCC4)cn3)nc2n(C2CCCC2)c1=O + COc1c(OCCCN2CCOCC2)ccc2c3n(c(=NC(=O)c4cnc(N)nc4)nc12)CCN3 gave a pIC50 (second compound 0.00316 µM) of 7.10, a pIC50 (second compound 0.01 µM) of 7.43 and a pIC50 (second compound 0.0316 µM) of 7.98. The pIC50 (second compound 0.1 µM) was > 9.50, the pIC50 (second compound 0.316 µM) was > 9.50 and the pIC50 (second compound 1 µM) was > 9.50. For the same molecule, the viability, T/C [1] was 96.5%, the viability, T/C [2] was 94.8% and the viability, T/C [3] was 90.4%. For the same molecule, the viability, T/C [4] was 85.2%, the viability, T/C [5] was 69.5% and the viability, T/C [6] was 45%. For the same molecule, the viability, T/C [7] was 80.6%, the viability, T/C [8] was 79.9% and the viability, T/C [9] was 73.7%. The viability, T/C [10] was 62.5%, the viability, T/C [11] was 53.6% and the viability, T/C [12] was 35.9%. For the same molecule, the viability, T/C [13] was 58.4%, the viability, T/C [14] was 59.7% and the viability, T/C [15] was 54.2%. It also gave a viability, T/C [16] of 50.5%, a viability, T/C [17] of 41.3% and a viability, T/C [18] of 26.7%. It also gave a viability, T/C [19] of 46.9%, a viability, T/C [20] of 44.9% and a viability, T/C [21] of 41.3%. It also gave a viability, T/C [22] of 39.2%, a viability, T/C [23] of 33.1% and a viability, T/C [24] of 21.1%. It also gave a viability, T/C [25] of 33.4%, a viability, T/C [26] of 31% and a viability, T/C [27] of 27.9%. It also gave a viability, T/C [28] of 27.3%, a viability, T/C [29] of 20.4% and a viability, T/C [30] of 16.4%. For the same molecule, the viability, T/C [31] was 25%, the viability, T/C [32] was 25% and the viability, T/C [33] was 23.5%. The viability, T/C [34] was 24%, the viability, T/C [35] was 21.6% and the viability, T/C [36] was 19.6%.

Work on CC(C)n1nc(-c2ccc3oc(N)nc3c2)c2c(N)ncnc21 + COc1c(OCCCN2CCOCC2)ccc2c3n(c(=NC(=O)c4cnc(N)nc4)nc12)CCN3 yielded a pIC50 (second compound 0.00316 µM) of 7.33, a pIC50 (second compound 0.01 µM) of 7.71 and a pIC50 (second compound 0.0316 µM) of 8.27. The pIC50 (second compound 0.1 µM) was > 9.50, the pIC50 (second compound 0.316 µM) was > 9.50 and the pIC50 (second compound 1 µM) was > 9.50. The viability, T/C [1] was 98.6%, the viability, T/C [2] was 93.6% and the viability, T/C [3] was 83.9%. The viability, T/C [4] was 76.1%, the viability, T/C [5] was 55.6% and the viability, T/C [6] was 36.9%. For the same molecule, the viability, T/C [7] was 78.3%, the viability, T/C [8] was 78.5% and the viability, T/C [9] was 68.8%. For the same molecule, the viability, T/C [10] was 58.3%, the viability, T/C [11] was 44.3% and the viability, T/C [12] was 29.1%. It also gave a viability, T/C [13] of 57.7%, a viability, T/C [14] of 59.3% and a viability, T/C [15] of 54.4%. The viability, T/C [16] was 44.2%, the viability, T/C [17] was 32.2% and the viability, T/C [18] was 21.4%. It also gave a viability, T/C [19] of 47%, a viability, T/C [20] of 45.8% and a viability, T/C [21] of 40.1%. The viability, T/C [22] was 34.7%, the viability, T/C [23] was 26.6% and the viability, T/C [24] was 19.8%. The viability, T/C [25] was 34.2%, the viability, T/C [26] was 31.5% and the viability, T/C [27] was 28.9%. The viability, T/C [28] was 25.4%, the viability, T/C [29] was 21.9% and the viability, T/C [30] was 18.5%. The viability, T/C [31] was 26%, the viability, T/C [32] was 23.9% and the viability, T/C [33] was 23.8%. It also gave a viability, T/C [34] of 23%, a viability, T/C [35] of 24.5% and a viability, T/C [36] of 22.5%.

CCCS(=O)(=O)Nc1ccc(F)c(C(=O)c2c[nH]c3ncc(-c4ccc(Cl)cc4)cc23)c1F + COc1c(OCCCN2CCOCC2)ccc2c3n(c(=NC(=O)c4cnc(N)nc4)nc12)CCN3 gave a pIC50 (second compound 0.00316 µM) of 5.29, a pIC50 (second compound 0.01 µM) of 5.46 and a pIC50 (second compound 0.0316 µM) of 5.78. For the same molecule, the pIC50 (second compound 0.1 µM) was > 7.50, the pIC50 (second compound 0.316 µM) was > 7.50 and the pIC50 (second compound 1 µM) was > 7.50. For the same molecule, the viability, T/C [5] was 104%, the viability, T/C [6] was 103% and the viability, T/C (second compound 0.00316 µM, first compound 0.316 µM) was 96.6%. For the same molecule, the viability, T/C (second compound 0.00316 µM, first compound 1 µM) was 76.5%, the viability, T/C (second compound 0.00316 µM, first compound 3.16 µM) was 63.1% and the viability, T/C (second compound 0.00316 µM, first compound 10 µM) was 34.8%. The viability, T/C [11] was 74.4%, the viability, T/C [12] was 91.3% and the viability, T/C (second compound 0.01 µM, first compound 0.316 µM) was 80.4%. It also gave a viability, T/C (second compound 0.01 µM, first compound 1 µM) of 67.6%, a viability, T/C (second compound 0.01 µM, first compound 3.16 µM) of 53% and a viability, T/C (second compound 0.01 µM, first compound 10 µM) of 32.3%. The viability, T/C [17] was 65.1%, the viability, T/C [18] was 64.7% and the viability, T/C (second compound 0.0316 µM, first compound 0.316 µM) was 62.7%. The viability, T/C (second compound 0.0316 µM, first compound 1 µM) was 57%, the viability, T/C (second compound 0.0316 µM, first compound 3.16 µM) was 41% and the viability, T/C (second compound 0.0316 µM, first compound 10 µM) was 25.3%. It also gave a viability, T/C [23] of 48%, a viability, T/C [24] of 49.8% and a viability, T/C (second compound 0.1 µM, first compound 0.316 µM) of 50%. It also gave a viability, T/C (second compound 0.1 µM, first compound 1 µM) of 44.5%, a viability, T/C (second compound 0.1 µM, first compound 3.16 µM) of 34% and a viability, T/C (second compound 0.1 µM, first compound 10 µM) of 20.9%. The viability, T/C [29] was 34.8%, the viability, T/C [30] was 35.1% and the viability, T/C (second compound 0.316 µM, first compound 0.316 µM) was 34.4%. For the same molecule, the viability, T/C (second compound 0.316 µM, first compound 1 µM) was 30.7%, the viability, T/C (second compound 0.316 µM, first compound 3.16 µM) was 24.4% and the viability, T/C (second compound 0.316 µM, first compound 10 µM) was 15.7%. For the same molecule, the viability, T/C [35] was 28.2%, the viability, T/C [36] was 28.3% and the viability, T/C (second compound 1 µM, first compound 0.316 µM) was 26.7%. For the same molecule, the viability, T/C (second compound 1 µM, first compound 1 µM) was 24.9%, the viability, T/C (second compound 1 µM, first compound 3.16 µM) was 20.3% and the viability, T/C (second compound 1 µM, first compound 10 µM) was 13.2%.
